The record followed here is US8143293B2, “Kinase inhibitors useful for the treatment of myleoprolific diseases and other proliferative diseases” (Deciphera Pharmaceuticals, LLC, priority 2007, dated 2012).

The structures appear in SMILES notation. Positions count from the first letter of the chain named.

In assay [1] the target is T1, Abl kinase (SEQ ID NO: 1) (Homo sapiens, UniProt P00519).
T1 construct: purchased deCode Genetics
T1 sequence (P00519 with tags, fused parts or gaps): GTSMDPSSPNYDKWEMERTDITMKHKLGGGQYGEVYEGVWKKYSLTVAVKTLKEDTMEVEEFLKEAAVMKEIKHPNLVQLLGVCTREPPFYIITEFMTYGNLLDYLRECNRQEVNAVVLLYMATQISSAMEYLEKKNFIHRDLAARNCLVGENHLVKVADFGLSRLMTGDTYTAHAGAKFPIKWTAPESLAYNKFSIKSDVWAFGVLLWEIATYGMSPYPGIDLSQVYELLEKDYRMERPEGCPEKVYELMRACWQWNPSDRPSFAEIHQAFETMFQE
Kind of assay: Abl kinase (SEQ ID NO:1) assay, pyruvate kinase/lactate dehydrogenase coupled. The conditions noted are these: 2 h preincubation, ATP 500 μM; read-out: Biochemical IC50, Abl Enzyme Assay. The protocol:
Abl Kinase (SEQ ID NO:1) Assay
Activity of Abl kinase (SEQ ID NO: 1) was determined by following the production of ADP from the kinase reaction through coupling with the pyruvate kinase/lactate dehydrogenase system (e.g., Schindler, et al. Science (2000) 289, 1938-1942). In this assay, the oxidation of NADH (thus the decrease at A340 nm) was continuously monitored spectrophometrically. The reaction mixture (100 μl) contained Abl kinase (1 nM. Abl from deCode Genetics), peptide substrate (EAIYAAPFAKKK, 0.2 mM), MgCl2 (10 mM), pyruvate kinase (4 units), lactate dehydrogenase (0.7 units), phosphoenol pyruvate (1 mM), and NADH (0.28 mM) in 90 mM Tris buffer containing 0.2% octyl-glucoside and 3.5% DMSO, pH 7.5. Test compounds were incubated with Abl (SEQ ID NO:1) and other reaction reagents at 30° C. for 2 h before ATP (500 μM) was added to start the reaction. The absorption at 340 nm was monitored continuously for 2 hours at 30° C. on Polarstar Optima plate reader (BMG). The reaction rate was calculated using the 1.0 to 2.0 h time frame. Percent inhibition was obtained by comparison of reaction rate with that of a control (i.e. with no test compound). IC50 values were calculated from a series of percent inhibition values determined at a range of inhibitor concentrations using software routines as implemented in the GraphPad Prism software package.

Assay [2] has as its target T2, T315I Abl kinase (SEQ ID NO:2) (Homo sapiens, UniProt P00519, T315I).
T2 construct: purchased deCode Genetics
T2 sequence (P00519 with tags, fused parts or gaps T315I): T1 sequence (P00519 with tags, fused parts or gaps) with T94I
Kind of assay: T315I Abl kinase (SEQ ID NO:2) assay, pyruvate kinase/lactate dehydrogenase coupled. The conditions noted are these: 1 h preincubation, ATP 500 μM; read-out: Biochemical IC50, Abl T315I Enzyme Assay. The protocol:
Abl Kinase (SEQ ID NO:2) Assay
Activity of T315I Abl kinase (SEQ ID NO:2) was determined by following the production of ADP from the kinase reaction through coupling with the pyruvate kinase/lactate dehydrogenase system (e.g., Schindler, et al. Science (2000) 289, 1938-1942). In this assay, the oxidation of NADH (thus the decrease at A340 nm) was continuously monitored spectrophometrically. The reaction mixture (100 μl) contained Abl kinase (4.4 nM, […] Abl from deCode Genetics), peptide substrate (EAIYAAPFAKKK, 0.2 mM), MgCl2 (10 mM), pyruvate kinase (4 units), lactate dehydrogenase (0.7 units), phosphoenol pyruvate (1 mM), and NADH (0.28 mM) in 90 mM Tris buffer containing 0.2% octyl-glucoside and 1% DMSO, pH 7.5. Test compounds were incubated with T315I Abl (SEQ ID NO:2) and other reaction reagents at 30° C. for 1 h before ATP (500 μM) was added to start the reaction. The absorption at 340 nm was monitored continuously for 2 hours at 30° C. on Polarstar Optima plate reader (BMG). The reaction rate was calculated using the 1.0 to 2.0 h time frame. Percent inhibition was obtained by comparison of reaction rate with that of a control (i.e. with no test compound). IC50 values were calculated from a series of percent inhibition values determined at a range of inhibitor concentrations using software routines as implemented in the GraphPad Prism software package.

For assay [3], the target named is T3, BaF3 cells transfected with wild type p210 BCR-Abl (Homo sapiens, UniProt P00519).
T3 construct: fused on or other part: P11274 (Breakpoint cluster region protein)
Nature of the assay: Ba/F3 p210 whole cell proliferation assay. In kind it is cell-based. The conditions noted are these: 72 hours, Cell Titer Blue; read-out: Whole Cell Antiproliferation IC50, Ba/F3 p210 whole cell proliferation assay. The protocol: (§1) BaF3 cells (parental or transfected with the following: wild type p210 BCR-Abl and T315I p210 BCR-Abl was obtained from Professor Richard Van Etten (New England Medical Center, Boston, Mass.). Briefly, cells were grown in RPMI 1640 supplemented with 10% characterized fetal bovine serum (HyClone, Logan, Utah) at 37 degrees Celsius, 5% CO2, 95% humidity. Cells were allowed to expand until reaching 80% saturation at which point they were subcultured or harvested for assay use.
(§2) A serial dilution of test compound was dispensed into a 96 well black clear bottom plate (Corning, Corning, N.Y.). For each cell line, three thousand cells were added per well in complete growth medium. Plates were incubated for 72 hours at 37 degrees Celsius, 5% CO2, 95% humidity. At the end of the incubation period Cell Titer Blue (Promega, Madison, Wis.) was added to each well and an additional 4.5 hour incubation at 37 degrees Celsius, 5% CO2, 95% humidity was performed. Plates were then read on a BMG Fluostar Optima (BMG, Durham, N.C.) using an excitation of 544 nm and an emission of 612 nm. Data was analyzed using Prism software (Graphpad, San Diego, Calif.) to calculate IC50's.
On the technique in general: The colour change of resazurin is a common sign of viable cells or microbes.

Assay [4] addresses T4, BaF3 cells transfected with T315I p210 BCR-Abl (Homo sapiens, UniProt P00519, T315I, cells depend on it).
T4 construct: fused on or other part: P11274 (Breakpoint cluster region protein)
Nature of the assay: Ba/F3 p210 T315I whole cell proliferation assay. The note with it: 72 hours, Cell Titer Blue; read-out: Whole Cell Antiproliferation IC50, Ba/F3 p210 T315I whole cell proliferation assay. The assay is classed as cell-based. The protocol: as §1, §2

One may read the IC50 as the midpoint of a concentration-inhibition curve. On to `Cc1cc(NC(=O)Nc2ccc(Oc3ccnc(-c4cnn(C)c4)c3)cc2F)nn1C(C)(C)C` [Example 38, 1-(1-tert-butyl-5-methyl-1H-pyrazol-3-yl)-3-(2-fluoro-4-(2-(1-methyl-1H-pyrazol-4-yl)pyridin-4-yloxy)phenyl)urea], for which the IC50 is less than 100 nM in assay [1] and less than 1000 nM in assay [2]. In addition, the GI50 in assay [3] was less than 1000 nM; in assay [4], less than 100000 nM.

As for `CC(C)n1cnc(NC(=O)Nc2ccc(Oc3ccnc(-c4cnn(C)c4)c3)cc2F)c1` [Example 34, 1-(2-fluoro-4-(2-(1-methyl-1H-pyrazol-4-yl)pyridin-4-yloxy)phenyl)-3-(1-isopropyl-1H-imidazol-4-yl)urea], the half-maximal inhibitory concentration (IC50) in assay [1] and in assay [2] was less than 100 nM throughout. In addition, the figures for the GI50 in assay [3] and in assay [4] were less than 100 nM and less than 1000 nM, respectively.

As for `Cc1ncc(C(F)(F)F)cc1NC(=O)Nc1ccc(Oc2ccnc(-c3cnn(C)c3)c2)cc1F` [Example 37, 1-(2-fluoro-4-(2-(1-methyl-1H-pyrazol-4-yl)pyridin-4-yloxy)phenyl)-3-(2-methyl-5-(trifluoromethyl)pyridin-3-yl)urea], the IC50 in assay [1] and in assay [2] was less than 100 nM throughout. Further, the GI50 in assay [3] and in assay [4] was less than 100 nM in each case.

Turning to `Cn1cc(-c2cc(Oc3ccc(NC(=O)Nc4cc(C5CC5)nn4C)c(F)c3)ccn2)cn1` [Example 33, 1-(3-cyclopropyl-1-methyl-1H-pyrazol-5-yl)-3-(2-fluoro-4-(2-(1-methyl-1H-pyrazol-4-yl)pyridin-4-yloxy)phenyl)urea], the half-inhibitory concentration (IC50) in assay [1] and in assay [2] was less than 1000 nM each time. Further, the GI50 in assay [3] and in assay [4] was less than 1000 nM in each case.

Regarding `Cn1cc(-c2cc(Oc3ccc(NC(=O)NC4CC(=O)N(C(C)(C)C)C4)c(F)c3)ccn2)cn1` (stereo not drawn) [Example 35, 1-(1-tert-butyl-5-oxopyrrolidin-3-yl)-3-(2-fluoro-4-(2-(1-methyl-1H-pyrazol-4-yl)pyridin-4-yloxy)phenyl)urea], the values for the concentration for half-maximal inhibition (IC50) in assay [1] and in assay [2] were less than 1000 nM and less than 10000 nM, respectively. For the same molecule, the GI50 was less than 1000 nM in assay [3] and less than 100000 nM in assay [4].

Take `Cn1cc(-c2cc(Oc3ccc(NC(=O)Nc4nc5ccc(F)cc5s4)c(F)c3)ccn2)cn1` [Example 29, 1-(2-fluoro-4-(2-(1-methyl-1H-pyrazol-4-yl)pyridin-4-yloxy)phenyl)-3-(6-fluorobenzo[d]thiazol-2-yl)urea]: in assay [1], the IC50 was less than 100 nM. Further, the GI50 in assay [3] is less than 1000 nM; in assay [4], less than 100000 nM.

For `Cc1c(C(C)(C)C)noc1NC(=O)Nc1ccc(Oc2ccnc(-c3cnn(C)c3)c2)cc1F` [Example 31, 1-(3-tert-butyl-4-methylisoxazol-5-yl)-3-(2-fluoro-4-(2-(1-methyl-1H-pyrazol-4-yl)pyridin-4-yloxy)phenyl)urea], the IC50 in assay [1] and in assay [2] was less than 100 nM throughout. Moreover, the GI50 in assay [3] and in assay [4] was less than 100 nM in each case.

Turning to `Cc1c(NC(=O)Nc2ccc(Oc3ccnc(-c4cnn(C)c4)c3)cc2F)cnn1C1CCCC1` [Example 23, 1-(1-cyclopentyl-5-methyl-1H-pyrazol-4-yl)-3-(2-fluoro-4-(2-(1-methyl-1H-pyrazol-4-yl)pyridin-4-yloxy)phenyl)urea], the IC50 in assay [1] is less than 100 nM. The GI50 in assay [3] was less than 100 nM; in assay [4] it was less than 1000 nM.

`Cn1cc(-c2cc(Oc3ccc(NC(=O)NC4CCN(C(C)(C)C)C4)c(F)c3)ccn2)cn1` (stereo not drawn) [Example 36, 1-(1-tert-butylpyrrolidin-3-yl)-3-(2-fluoro-4-(2-(1-methyl-1H-pyrazol-4-yl)pyridin-4-yloxy)phenyl)urea]: the IC50 in assay [1] is less than 1000 nM; in assay [2], less than 10000 nM. Also, the GI50 is less than 10000 nM in assay [3] and less than 100000 nM in assay [4].

In the case of `CCc1cncc(NC(=O)Nc2ccc(Oc3ccnc(-c4cnn(C)c4)c3)cc2F)c1` [Example 32, 1-(5-ethylpyridin-3-yl)-3-(2-fluoro-4-(2-(1-methyl-1H-pyrazol-4-yl)pyridin-4-yloxy)phenyl)urea], the half-inhibitory concentration (IC50) in assay [1] and in assay [2] was less than 100 nM throughout. Further, the GI50 in assay [3] and in assay [4] was less than 100 nM in each case.

As to `Cn1cc(-c2cc(Oc3ccc(NC(=O)Nc4cnc(C(C)(C)C)o4)c(F)c3)ccn2)cn1` [Example 26, 1-(2-tert-butyloxazol-5-yl)-3-(2-fluoro-4-(2-(1-methyl-1H-pyrazol-4-yl)pyridin-4-yloxy)phenyl)urea], in assay [1], the IC50 is less than 100 nM.
